Results on 19 molecules are retold here after paper PMC10054634, “Chemical Constituents of Thesium chinense Turcz and Their In Vitro Antioxidant, Anti-Inflammatory and Cytotoxic Activities” (Molecules, 2023).

“Also recorded” adds a separate entry of the source. Like-named read-outs stand apart in the source and are kept apart here.

Series [1] in a line: DPPH radical scavenging assay. The following applies: for SC50: concentration required for 50% reduction of DPPH radicals, 37 °C, 30 min, 517 nm, nc = SC50 cannot be calculated due to weak or no related activities. As for the experimental part:
The 2, 2-diphenyl-1-picrylhydrazyl (Aldrich Chem. Co. Ltd, Shanghai, China) radical scavenging activity assay was performed according to the previously published method with some modification. Test samples were dissolved in MeOH to six different concentrations ranging from 3.125 to 100 μM. Then, 100 μL of 100 μM DPPH in MeOH were mixed with 100 μL of samples at different concentrations in the wells of 96-well plates. The reaction mixtures were incubated in the dark at 37 °C for 30 min and then measured at 517 nm. Ascorbic acid was used as the positive control. The scavenging activity (SC) was estimated as follows: % SC = [1 − (Asample − Ablank)/Acontrol] ×100. Asample was the equivalent mixture of test sample and DPPH solution. Ablank was the equivalent mixture of test sample and MeOH solution. Acontrol was the equivalent mixture of DPPH and MeOH solution. The SC50 values were used to evaluate the antioxidant activities of isolated compounds. The experiments were performed in triplicate, and the data were expressed as the means ± SD of three independent experiments.

The test system of a further series is SiHa. Put plainly: Cytotoxic assay (CCK-8), SiHa. The format is cell-based, human. The following applies: 48 h, mean ± SD (n = 3). As to the method: (§1) Four human cancer cell lines, A549, NCI-H292, SiHa and MKN45, were purchased from the Cell Bank of the Chinese Academy of Sciences (Shanghai, China). […] Cisplatin (Abmole Bioscience, Shanghai, China) was used as positive control.
(§2) A total of 180 μL of cancer cells (5 × 10^3) were plated in each well of 96-well plates and cultured for 24 h, then the supernatant of the culture was discarded and 180 μL complete medium with different concentrations of test samples were added into triplicate wells of each cell line, respectively. Thereafter, A549, NCI-H292, SiHa and MKN45 were incubated for 48 h, respectively. The cell viability was evaluated by Cell Counting Kit-8 (CCK-8, Best Bio., Beijing, China), respectively. The experiments were performed in triplicate, and the data were expressed as the means ± SD of three independent experiments.

The next series concerns A549. Nature of the series: Cytotoxic assay (CCK-8), A549. Type of series: cell-based, human. The conditions noted are these: A549, 48 h, mean ± SD (n = 3). As for the experimental part:
as §1, §2

Series [2] in a line: Cytotoxicity in RAW 264.7 cells (CCK-8). The conditions noted are these: mouse.
Description: The cell viability was determined by the CCK-8 assay method. The cytotoxicity was calculated from the plotted results using untreated cells at 100%.
Another series concerns NCI-H292. Put plainly: Cytotoxic assay (CCK-8), NCI-H292. Type of series: cell-based, human. The conditions noted are these: NCI-H292, 48 h, mean ± SD (n = 3). As to the method: as §1, §2
Series [3] relates to NO production in LPS-activated RAW 264.7 cells. Nature of the series: Inhibition of NO production in LPS-activated RAW 264.7 cells (Griess reaction). Type of series: cell-based. The following applies: Mus musculus, read-out: IC50 (NO inhibitory activity). As for the experimental part:
The macrophage RAW 264.7 cells were obtained from the Cell Bank of the Chinese Academy of Sciences (Shanghai, China). A total of 180 μL of RAW 264.7 cells (1 × 10^4) were plated respectively in each well of 96-well plate and cultured for 24 h, then the supernatant of the culture was discarded and 180 μL complete medium with 1 μg/mL LPS and different concentrations of test samples were added into triplicate wells for 24 h. The inhibition effects on LPS-stimulated NO production was evaluated by the Griess reaction assay. The experiments were performed in triplicate, and the data were expressed as the means ± SD of three independent experiments.
In general terms: Griess reagent forms a coloured azo dye with nitrite.

A further series deals with MKN45. Put plainly: Cytotoxic assay (CCK-8), MKN45. The format is cell-based, human. The following applies: mean ± SD (n = 3). As to the method: as §1, §2
[4] abbreviates: RAW264.7, RAW 264.7, 1 μg/mL LPS, 24 h, mean ± SD (n = 3).
Setting [5] is: Homo sapiens, MKN-45, MKN45, 48 h.

A word on the IC50: it is the concentration needed to halve the response being measured.

Regarding `O=C1O[C@H]([C@@H](O)CO)C(O)=C1O` [Ascorbic acid, reference compound], the figures for the SC50 in series [1] and in series [1] (listed as ascorbic acid) were 15.6 ± 0.8 µM and 15.5 ± 0.8 µM, respectively.

As to `OCCc1ccc(O)c(O[C@@H]2O[C@H](CO)[C@@H](O)[C@H](O)[C@H]2O[C@@H]2O[C@H](CO)[C@@H](O)[C@H](O)[C@H]2O)c1` [Compound 2, 3,4-dihydroxyphenethyl alcohol 3-O-β-D-glucopyranosyl (1→2)-β-D-glucopyranoside], the IC50 (in the series with SiHa (Homo sapiens); with A549 (Homo sapiens); in series [2]; in the series on NCI-H292 (Homo sapiens); in series [3] (setting [4]); in the series with MKN45 (setting [5])) was greater than 200 µM each time.

For `CC/C=C\CCO[C@@H]1O[C@H](CO)[C@@H](O)[C@H](O)[C@H]1O[C@@H]1O[C@H](CO)[C@@H](O)[C@H](O)[C@H]1O` [Compound 3, (Z)-hex-3-ene 3-O-β-D-glucopyranosyl (1→2)-β-D-glucopyranoside], the IC50 (in the series with SiHa (Homo sapiens); in the series with A549 (Homo sapiens); in series [2]; in the series with NCI-H292 (Homo sapiens); in series [3] (setting [4]); in the series on MKN45 (setting [5])) was greater than 200 µM in each case.

Regarding `C[C@]12CC[C@H](O)C[C@@]1(O)CCC1C2CC[C@]2(C)[C@@H](C3=CC(=O)OC3)CC[C@]12O` (some centres unmarked) [Compound 4, perlplogemn], the IC50 in the series on A549 came to 17.4 ± 2.4 µM; in the series on NCI-H292, 22.2 ± 1.1 µM; in the series with MKN45 (MKN45, 48 h), 9.5 ± 0.7 µM.

With `CO[C@H]1C[C@H](OC2CC[C@]3(C)C4CC[C@]5(C)[C@@H](C6=CC(=O)OC6)CC[C@]5(O)C4CC[C@]3(O)C2)O[C@H](C)[C@H]1O[C@@H]1O[C@H](CO)[C@@H](O)[C@H](O)[C@H]1O` (some centres unmarked) [Compound 5, periplocin], the IC50 in the series on SiHa (Homo sapiens) was less than 0.1 µM; in the series on A549 (Homo sapiens) it was less than 0.1 µM; in series [2] it was greater than 200 µM; in the series with NCI-H292 (Homo sapiens) it was less than 0.1 µM; in series [3] (setting [4]), greater than 200 µM; in the series on MKN45 (setting [5]) it was less than 0.1 µM.

For `OCCc1cc(O)cc(O[C@@H]2O[C@H](CO)[C@@H](O)[C@H](O)[C@H]2O)c1` [Compound 7, 3,5-dihydroxyphenethyl alcohol 3-O-β-D-glucopyranoside], the IC50 (with SiHa (Homo sapiens); in the series on A549 (Homo sapiens); in series [2]; in the series with NCI-H292 (Homo sapiens); in series [3] (setting [4]); with MKN45 (setting [5])) was greater than 200 µM in each case. Also, the “antioxidant activity on DPPH radical scavenging (in words)” value in series [1] (compared with positive control ascorbic acid) is listed as “weak antioxidant activities; also recorded: weak activity”. Moreover, the SC50 in series [1] was 255.2 ± 12.6 µM.

Take `OCC1OC(OC2C(OCCc3ccccc3)OC(CO)C(O)C2O)C(O)C(O)C1O` (stereo not drawn) [Compound 8, phenethyl alcohol β-sophoroside]: the concentration for half-maximal inhibition (IC50) (in the series on SiHa (Homo sapiens); with A549 (Homo sapiens); in series [2]; in the series on NCI-H292 (Homo sapiens); in series [3] (setting [4]); with MKN45 (setting [5])) was greater than 200 µM throughout.

Consider `COc1cc(C2Oc3c(OC)cc(CCCO)cc3C2CO)ccc1OC1OC(CO)C(O)C(O)C1O` [Compound 12, dihydrodehydro diconiferyl alcohol 4-O-β-D-glucoside], for which the IC50 (in the series on SiHa (Homo sapiens); in the series with A549 (Homo sapiens); in series [2]; in the series with NCI-H292 (Homo sapiens); in series [3] (setting [4]); with MKN45 (setting [5])) was greater than 200 µM throughout.

For the molecule `COC/C=C/c1cc(OC)c2c(c1)[C@H](CO)[C@H](c1ccc(O[C@@H]3O[C@H](CO)[C@@H](O)[C@H](O)[C@H]3O)c(OC)c1)O2` [Compound 13, (7S, 8R) 9′-methoxy-dehydrodiconiferyl alcohol 4-O-β-D-glucopyranoside], the IC50 (in the series with SiHa (Homo sapiens); in the series with A549 (Homo sapiens); in series [2]; with NCI-H292 (Homo sapiens); in series [3] (setting [4]); in the series with MKN45 (setting [5])) was greater than 200 µM each time.

Take `COc1cc([C@@H](O)[C@@H](CO)Oc2c(OC)cc(/C=C/CO)cc2OC)cc(OC)c1O[C@@H]1O[C@H](CO)[C@@H](O)[C@H](O)[C@H]1O` [Compound 14, picraquassioside C]: the IC50 (with SiHa (Homo sapiens); in the series on A549 (Homo sapiens); in series [2]; in the series on NCI-H292 (Homo sapiens); in series [3] (setting [4]); in the series with MKN45 (setting [5])) was greater than 200 µM throughout.

For `COc1cc([C@H](O)[C@@H](CO)Oc2ccc(/C=C/CO)cc2OC)ccc1O[C@@H]1O[C@H](CO)[C@@H](O)[C@H](O)[C@H]1O` [Compound 15, citrusin A], the IC50 (with SiHa (Homo sapiens); in the series with A549 (Homo sapiens); in series [2]; with NCI-H292 (Homo sapiens); in series [3] (setting [4]); in the series on MKN45 (setting [5])) was greater than 200 µM each time.

For the molecule `COc1cc([C@H](O)[C@@H](CO)Oc2c(OC)cc(/C=C/CO)cc2OC)ccc1O[C@@H]1O[C@H](CO)[C@@H](O)[C@H](O)[C@H]1O` [Compound 16, citrusin B], the IC50 (in the series with SiHa (Homo sapiens); with A549 (Homo sapiens); in series [2]; with NCI-H292 (Homo sapiens); in series [3] (setting [4]); in the series on MKN45 (setting [5])) was greater than 200 µM in each case.

Take `O=C(O)/C=C/c1ccc(O)cc1` [Compound 22, p-coumaric acid]: the IC50 (in the series on SiHa (Homo sapiens); in the series with A549 (Homo sapiens); in series [2]; in the series with NCI-H292 (Homo sapiens); in series [3] (setting [4]); in the series with MKN45 (setting [5])) was greater than 200 µM each time.

Turning to `COc1cc(/C=C/CO)cc(OC)c1O[C@@H]1O[C@H](CO)[C@@H](O)[C@H](O)[C@H]1O` [Compound 24, syringin], the IC50 in the series on SiHa (Homo sapiens) was greater than 200 µM; with A549 (Homo sapiens) it was greater than 200 µM; in series [2], greater than 200 µM; with NCI-H292 (Homo sapiens) it was greater than 200 µM; in series [3] (RAW264.7, 24 h), greater than 200 µM; with MKN45 (setting [5]), greater than 200 µM.

Regarding `COc1cc(/C=C/CO)ccc1O[C@@H]1O[C@H](CO)[C@@H](O)[C@H](O)[C@H]1O` [Compound 25, coniferin], the IC50 (in the series with SiHa (Homo sapiens); in the series on A549 (Homo sapiens); in series [2]; in the series on NCI-H292 (Homo sapiens); in series [3] (setting [4]); in the series with MKN45 (setting [5])) was greater than 200 µM in each case.

As to `COc1cc(/C=C/C=O)cc(OC)c1O[C@@H]1O[C@H](CO)[C@@H](O)[C@H](O)[C@H]1O` [Compound 29, sinapaldehyde glucoside], the IC50 in the series with SiHa (Homo sapiens) is greater than 200 µM; in the series on A549 (Homo sapiens), greater than 200 µM; in series [2], greater than 200 µM; in the series on NCI-H292 (Homo sapiens), greater than 200 µM; in series [3] (RAW264.7, 24 h), greater than 200 µM; in the series on MKN45 (setting [5]), greater than 200 µM.

With `O=c1c(O)c(-c2ccc(O)c(O)c2)oc2cc(O)cc(O)c12` [Quercetin, reference compound], the IC50 is greater than 50 µM in series [2] and 11.1 ± 1.4 µM in series [3] (setting [4]).

As to `N.N.[Cl][Pt][Cl]` [cisplatin, reference compound], the 50% inhibitory concentration (IC50) in the series on SiHa was 7 ± 0.7 µM; in the series on A549, 19.5 ± 6.7 µM; in the series with NCI-H292, 52.8 ± 5.3 µM; in the series with MKN45 (MKN45, 48 h), 7 ± 0.3 µM.

As for scopoletin [Compound 28], the IC50 is greater than 200 µM in the series on SiHa; greater than 200 µM with A549; greater than 200 µM in the series with NCI-H292; 52.8 ± 5.3 µM in the series with MKN45 (MKN45, 48 h).
